{"source": "patent US6617117B1", "about": "“MAP kinases: polypeptides, polynucleotides and uses thereof” (Medical Research Council, priority 1996, dated 2003)", "key": {"SAPK3": {"biological_target": "T1, SAPK3 (Rattus norvegicus, UniProt Q63538)", "T1 construct": "expressed in transfected cells; host or cells: human KB and 293 cells (vector pSG5)", "T1 sequence (Q63538 1-367)": "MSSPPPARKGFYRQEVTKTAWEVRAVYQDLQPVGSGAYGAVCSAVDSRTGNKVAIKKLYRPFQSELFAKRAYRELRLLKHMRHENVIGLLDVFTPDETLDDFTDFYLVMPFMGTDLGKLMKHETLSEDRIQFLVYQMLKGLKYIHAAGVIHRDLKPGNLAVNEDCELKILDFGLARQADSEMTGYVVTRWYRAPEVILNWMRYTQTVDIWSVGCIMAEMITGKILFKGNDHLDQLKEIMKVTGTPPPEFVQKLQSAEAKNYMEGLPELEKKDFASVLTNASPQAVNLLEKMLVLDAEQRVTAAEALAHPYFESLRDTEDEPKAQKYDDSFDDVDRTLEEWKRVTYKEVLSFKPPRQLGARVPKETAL", "assay": "Activation of transfected myc epitope-tagged SAPK3 in KB and 293 cells, immunoprecipitation and MBP assay", "type": "cell-based, human", "procedure": "FIG. 11. SAPK3 is activated by cytokines and cellular stresses in KB and 293 cells. KB cells (A) or 293 cells (B) were transiently transfected with a DNA construct expressing a myc epitope-tagged SAPK3. Cells in DMEM were stimulated for 15 min with 0.5 M sorbitol (an osmotic shock), 20 ng/ml IL-1α, 100 ng/ml TNFa, 0.5 mM sodium arsenite (a chemical stress), 100 ng/ml of EGF or 300 ng/ml TPA, or for 30 min with […] anisomycin or 10 min with 100 ng/ml IGF-1. UV-C irradiation of cells was carried out at 60 J/m2 (KB cells) or 200 J/m2 (293 cells) and the cells then left for a further 30 min at 37° C. before lysis. The myc epitope-tagged SAPK3 was immunoprecipitated from cell lysates using the 9E10 monoclonal antibody and assayed with MBP as substrate. […] After UV-C irradiation, SAPK3 activity in the extracts was 0.18 U/mg (KB cells) and 0.1 U/mg (293 cells).\nCell culture and transient transfections. 293, KB and COS-7 cells were cultured in Dulbecco's modified Eagles' Medium (DMEM) supplemented with 10% foetal calf serum, at 37° C., in an atmosphere of 5% CO2. Transfections of 293 cells were carried out using the calcium-phosphate method. […]"}, "SAPK4": {"biological_target": "T2, SAPK4 (Homo sapiens, UniProt O15264)", "T2 sequence (O15264 1-365)": "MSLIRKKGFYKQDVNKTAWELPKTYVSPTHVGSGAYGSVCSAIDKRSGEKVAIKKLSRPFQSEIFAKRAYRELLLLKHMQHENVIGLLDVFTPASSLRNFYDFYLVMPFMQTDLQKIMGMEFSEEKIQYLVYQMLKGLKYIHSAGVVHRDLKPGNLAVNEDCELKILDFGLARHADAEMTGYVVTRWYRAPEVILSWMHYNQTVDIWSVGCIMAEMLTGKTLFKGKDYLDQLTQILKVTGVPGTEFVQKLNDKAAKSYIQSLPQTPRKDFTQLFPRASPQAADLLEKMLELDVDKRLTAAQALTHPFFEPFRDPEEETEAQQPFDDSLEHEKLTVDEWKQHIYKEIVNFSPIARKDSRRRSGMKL", "assay": "Inhibition of SAPK4, MBP phosphorylation (FIG. 9)", "type": "biochemical", "set-up": "made in house; host or cells: E. coli BL21(DE3)", "procedure": "SAPK4 is assayed routinely by the phosphorylation of MBP. […] After washing and drying the papers (Alessi et al, 1995 Meth. Enzymol. 255, 279-290) ^32P radioactivity incorporated into MBP is measured."}}}
{"molecule": "C[S+]([O-])c1ccc(-c2nc(-c3ccncc3)c(-c3ccc(F)cc3)[nH]2)cc1", "note": "(stereo not drawn) [SB 203580]", "values": [{"measurement": "Prevention of activation of transfected SAPK3 by osmotic shock", "setting": "SAPK3", "result": "did not prevent"}, {"measurement": "Inhibition of SAPK4", "setting": "SAPK4; bacterially expressed SAPK4 activated by SKK3 in vitro", "result": "not inhibited"}, {"measurement": "Inhibition of dephosphorylated form of SAPK4", "setting": "SAPK4; dephosphorylated form, <0.1% of the activity of the phosphorylated form, data not shown", "result": "failed to inhibit"}]}
